Legend:
PANC-1 = experiment: Cytotoxicity against human Panc1 cell line by MTT assay; type: functional, cell-based
MIA PaCa-2 = experiment: Cytotoxicity against human Miapaca2 cell line by MTT assay; type: functional, cell-based
CWR22R = experiment: Cytotoxicity against human CWR22R cell line by MTT assay; type: functional, cell-based; conditions: 22Rv1
Hs 766 = experiment: Cytotoxicity against human HS766 cell line by MTT assay; type: functional, cell-based
MCF7 [1] = experiment: Induction of apoptosis in human MCF7 cell line at 10 nM after 48 hrs; type: functional
MCF7 [2] = experiment: Induction of apoptosis in human MCF7 cell line at 30 nM after 48 hrs; type: functional
Panc1005 = experiment: Cytotoxicity against human Panc1005 cell line by MTT assay; type: functional, cell-based
Panc203 = experiment: Cytotoxicity against human Panc203 cell line by MTT assay; type: functional, cell-based
LNCaP = experiment: Cytotoxicity against human LnCaP cell line by MTT assay; type: functional, cell-based
Panc430 = experiment: Cytotoxicity against human Panc430 cell line by MTT assay; type: functional, cell-based
ASPC1 = experiment: Cytotoxicity against human ASPC1 cell line by MTT assay; type: functional, cell-based
MCF7 [3] = experiment: Induction of apoptosis in human MCF7 cell line at 100 nM after 48 hrs; type: functional
LAPC4 = experiment: Cytotoxicity against human LAPC4 cell line by MTT assay; type: functional, cell-based
Tubulin (Homo sapiens) = Tubulin (Homo sapiens) (UniProt P68371+Q9H4B7+P0DPH7+P68366+Q13509+Q71U36+P04350+Q3ZCM7+P07437+P68363+Q9BQE3+Q6PEY2+Q13885+Q9BVA1+Q9BUF5); experiment: Inhibition of [3H]colchicine binding to tubulin at 5 uM; type: protein-complex assay
Tubulin = experiment: Inhibition of tubulin polymerization; type: protein-complex assay, Homo sapiens

Row | SMILES | IC50 (PANC-1) [µM] | IC50 (MIA PaCa-2) [µM] | IC50 (CWR22R) [µM] | IC50 (Hs 766) [µM] | Activity (MCF7 [1]) [%] | Activity (MCF7 [2]) [%] | IC50 (Panc1005) [µM] | IC50 (Panc203) [µM] | IC50 (LNCaP) [µM] | IC50 (Panc430) [µM] | IC50 (ASPC1) [µM] | Activity (MCF7 [3]) [%] | IC50 (LAPC4) [µM] | inhibition (Tubulin (Homo sapiens)) [%] | IC50 (Tubulin) [µM]
1 | Cc1cc(NC(=O)NC(=O)c2ccccc2N(C)C)ccc1Oc1ncc(Br)cn1 | 0.7 | 0.85 | 1 | 1 | 16.1 | 19.5 | 5 | 0.95 | 0.5 | 0.8 | 0.85 | 27.7 | 0.25 |  | 
2 | Nc1ccccc1C(=O)NC(=O)Nc1ccc(Sc2ncccn2)cc1 | 7.5 | 7 |  | 8 |  |  | > 10 | 5.5 |  | 6.5 | 6 |  |  |  | 
3 | O=C(NC(=O)c1ccccc1[N+](=O)[O-])Nc1ccc(Oc2ncc(Br)cn2)cc1 | 0.68 | 0.74 | 5 | 0.47 |  |  | > 10 | > 10 | 1 | 10 | 0.77 |  | 0.2 | 21 | 4.7
4 | O=C(NC(=O)c1ccccc1[N+](=O)[O-])Nc1ccc(Sc2ncccn2)cc1 |  |  | 5 |  |  |  |  |  | 0.5 |  |  |  | 0.6 |  | 
5 | O=C(NC(=O)c1ccccc1[N+](=O)[O-])Nc1ccc(S(=O)(=O)c2ncc(Br)cn2)cc1 | > 10 | 6.1 | > 10 | > 10 |  |  | > 10 | > 10 | 0.5 | > 10 | > 10 |  | 4 |  | 
6 | O=C(NC(=O)c1ccccc1[N+](=O)[O-])Nc1ccc(Sc2ncc(Br)cn2)cc1 | 0.085 | 0.086 | 0.05 | 0.088 | 29.7 | 51.2 | 10 | 0.7 | 0.05 | 0.09 | 1 | 53.6 | 0.05 | 17 | 2.1
7 | COc1cc([C@@H]2c3cc4c(cc3[C@H](O)[C@H]3COC(=O)[C@H]23)OCO4)cc(OC)c1OC |  |  |  |  |  |  |  |  |  |  |  |  |  | 77 | 
8 | O=C(NC(=O)c1ccccc1)Nc1ccc(Sc2ncc(Br)cn2)cc1 | > 10 | 5 |  | 5.5 |  |  | > 10 | 7.5 |  | 2 | > 10 |  |  |  | 
9 | O=C(NC(=S)Nc1ccc(Sc2ncc(Br)cn2)cc1)c1ccccc1 | 9.5 | 10 | > 10 | 8.5 |  |  | > 10 | > 10 | > 10 | 7.5 | 10 |  | 6 |  | 
10 | Nc1ccccc1C(=O)NC(=O)Nc1ccc(Oc2ncc(Br)cn2)cc1 | 3.5 | 0.92 | 2 | 0.27 |  |  | > 10 | > 10 | 0.75 | > 10 | 5.2 |  | 0.75 |  | 36
11 | O=C(NC(=O)c1ccccc1[N+](=O)[O-])Nc1ccc([S+]([O-])c2ncc(Br)cn2)cc1 (configuration not stated) | 6.5 | 8 |  | 6.5 |  |  | 5.5 | 5.5 |  | 5.5 | 2.5 |  |  |  | 
12 | Nc1ccccc1C(=O)NC(=O)Nc1ccc(Sc2ncc(Br)cn2)cc1 | 0.09 | 0.095 | 0.5 | 0.7 |  |  | 10 | 0.085 | 0.5 | 0.2 | 0.45 |  | 0.1 |  | > 40

— ChEMBL document CHEMBL1146091, “Benzoylphenylurea sulfur analogues with potent antitumor activity” (J Med Chem, 2006)
